Reference: publication PMC9545474, “Anticancer Water‐Soluble Organoruthenium Complexes: Synthesis and Preclinical Evaluation” (Chembiochem, 2022)

What was measured:
[1] = test system: A2780cisR cells; test: Cell viability with N-acetylcysteine (MTT), A2780cisR; format: cell-based, human; settings: NAC 5 mM 30 min before complexes at IC50
Protocol: Cell viability with N ‐acetylcysteine: Cells were seeded in 96‐well plates at a concentration of 7.5×10^3 cells per well and the plates were incubated for 24 h at 37 °C and a 5 % CO2 humidified atmosphere prior to drug exposure. Complexes were dissolved in either DMSO or PBS to provide stock solutions which were further diluted with media to provide a range of final concentrations. Solution of N‐acetylcysteine (NAC) in media was also prepared. […] Cells were incubated for 24 h at 37 °C and a 5 % CO2 humidified atmosphere. 3‐(4,5‐dimethylthiazol‐2‐yl)‐2,5‐diphenyltetrazolium bromide (MTT) (20 μL, 2.5 mg/mL) was added to each well and plates were incubated for 2 h. All solutions were then removed and 100 μL of DMSO was added to each well in order to dissolve the purple formazan crystals. A Thermo Scientific Multiskan EX microplate photometer was used to measure the absorbance in each well at 570 nm. Cell survival was determined as the absorbance of treated cells divided by the absorbance of controls and expressed as a percentage.

[2] = test system: A2780 subcutaneous tumour xenograft; test: Efficacy in A2780 subcutaneous tumour xenograft model; format: in vivo, Female Balb/c immunodeficient nude mice; settings: 6 at 50 mg/kg, 8 at 15 mg/kg, i.p.; for Maximum % weight loss / Median time to RTV2: days 0–4; for Growth delay: days 0–4, versus untreated
Protocol: Compounds: All compounds were provided in powdered form and stored in the −20 °C freezer. They were formulated just before use. […] The drugs were then administered within 10 minutes of initial dilution.
Animals: Female Balb/c immunodeficient nude mice aged 6–12 weeks were used (Envigo, Blackthorn, UK). Mice were kept in cages housed in isolation cabinets in an air‐conditioned room with regular alternating cycles of light and darkness. They received Teklad 2018 diet (Envigo, Blackthorn, UK) and water ad libitum. All animal procedures were carried out under a project licence issued by the UK Home Office and UK National Cancer Research Institute Guidelines for the Welfare of Animals were followed throughout.
S.c. xenograft tumours: A2780/WT and A2780/cis tumours were excised from a donor animal, placed in sterile physiological saline containing antibiotics and cut into small fragments of approximately 5 mm^3. Under brief general inhalation anaesthesia, fragments were implanted in the flank of each mouse using a trocar. Once the tumours could accurately be measured by callipers, the mice were allocated into groups (control or treated) by restricted randomisation to keep group mean tumour size variation to a minimum, with 3 animals set up per group.
Evaluation of efficacy in s.c. xenograft models: The compounds were prepared fresh on the days of treatment as described above and administered i. p. to mice on days 0–4 in a volume of 0.1 mL per 10 g of body weight. […] The negative control group was untreated.
The effects of therapy were assessed by frequent monitoring growth of the tumours and body weight. Two‐dimensional calliper measurements of the tumours were taken, and volumes calculated using the formula (a^2×b)/2, where a is the smaller and b the larger diameter of the tumour. Tumour volume was then normalised to the respective volume on day 0, and semi‐log plots of relative tumour volume (RTV) versus time were made. Mann‐Whitney U tests were performed to determine the statistical significance of any differences in growth rate (based on tumour volume doubling time, RTV2) between control and treated groups.

[3] = test system: A2780 ovarian cancer cells; test: 24-hour MTT chemosensitivity assay with 72-hour recovery, A2780; format: cell-based, human; settings: for IC50: 24 h exposure, 72 h recovery, MTT, read-out: IC50 values ±SD, A2780; for Selectivity index (SI), A2780: mean IC50 PNT2 / mean IC50 A2780
Protocol: Chemosensitivity studies were undertaken using a 24‐hour MTT assay, with a 72‐hour recovery period. The IC50 values were determined against ovarian A2780 (cisplatin‐sensitive) and A2780cisR (cisplatin‐resistant) cancer cell lines, non‐small‐cell lung H460 cancer cell line, and normal prostate PNT2 cell line, exposed to each of compounds 4–8, cisplatin or the phosphine ligands (Table 1 and S4, Figures S29–S31). […] This is unusual but can be related to solubility issues not visible for the naked eye and thus hindering its activity in cells. […] When tested on their own, the phosphine ligands are not active below 100 μM for all four cell lines. […] This therefore prevents comparison with the well‐known RAPTA family, and more especially with RAPTA−C which bears a PTA ligand and a p‐cym ligand, making this complex relatively similar in terms of geometry with complex 4.[21] […] This confirms the interest of the sulfur coordinating atom in terms of cytotoxicity for organoruthenium complexes.[23]
Chemosensitivity assay: In vitro chemosensitivity tests were performed against A2780, A2780cisR, PNT2 and H460 cells. Cells were routinely maintained as monolayer cultures in RPMI 1640 medium supplemented with 10 % foetal calf serum, penicillin (100 I.U./mL) and streptomycin (100 μg/mL), sodium pyruvate (1 mM) and L‐glutamine (2 mM). For chemosensitivity studies, cells were seeded in 96‐well plates at a concentration of 7.5×10^3 cells per well and the plates were incubated for 24 h at 37 °C and a 5 % CO2 humidified atmosphere prior to drug exposure.
Complexes were dissolved in either DMSO (complexes 4, 5, and 8) or PBS (complexes 6 and 7) to provide stock solutions which were further diluted with media to provide a range of final concentrations. Drug‐media solutions were added to cells (the final concentration of DMSO was less than 1 % (v/v) in all cases) and incubated for 24 h at 37 °C and a 5 % CO2 humidified atmosphere. The drug‐media solution was removed from the wells and the cells were washed with PBS (100 μL, twice) and 200 μL of complete fresh media were added to each well. The plates were further incubated for 72 h at 37 °C and a 5 % CO2 humidified atmosphere to allow for a period of recovery. 3‐(4,5‐dimethylthiazol‐2‐yl)‐2,5‐diphenyltetrazolium bromide (MTT) (40 μL, 2.5 mg/mL) was added to each well and plates were incubated for 2 h. All solutions were then removed and 100 μL of DMSO was added to each well in order to dissolve the purple formazan crystals. A Thermo Scientific Multiskan EX microplate photometer was used to measure the absorbance in each well at 570 nm. Cell survival was determined as the absorbance of treated cells divided by the absorbance of controls and expressed as a percentage. The IC50 values were determined from plots of % survival against drug concentration. Each experiment was repeated in triplicates of triplicates and a mean value was obtained and stated as IC50 (μM) ± SD. Untreated cells were used as a negative control, and cells treated with cisplatin were used as a positive control.

(η^6‐p‐cymene)(TPPTS)Ru(Mnt) [Complex 6]
Cell viability after pre-treatment with NAC [1]: increase of the cell viability
Maximum % weight loss [2]: 0%
Median time to RTV2 [2]: 2.0 days
Growth delay [2]: 0.6 days
IC50 [3]: 600 ± 70 nM
Selectivity index (SI), A2780 [3]: 2.67

Cc1ccc(C(C)C)cc1.N#CC1=C(C#N)[S][Ru-]([P+](c2ccccc2)(c2ccccc2)c2ccccc2)[S]1 [Complex 8, (η^6‐p‐cymene)(PPh3)Ru(Mnt)]
Cell viability after pre-treatment with NAC [1]: increase of the cell viability
Toxicity in xenograft study [2]: No toxicity was observed
Maximum % weight loss [2]: 0%
Median time to RTV2 [2]: 1.5 days
Growth delay [2]: 0.1 days
IC50 [3]: 960 ± 40 nM
Selectivity index (SI), A2780 [3]: 2.50
